Measured values as given in the supplement of paper PMC9780213.

Columns and labels:
Details in all cases: treatment time: 24 h
U2OS = assay: cell count relative to DMSO control (panel A, nuclei/RNA/PMG/mitochondria stain) (fraction of control); higher = more cells (less toxicity)
Method: (§1)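 U2OS-derived cells in 384-well plates were treated for 24 h with a 7-point 2-fold dilution series (top dose 20 µM for most compounds; final max DMSO 1%), then fixed, stained in four marker panels and imaged on a Cellomics ArrayScan. Cell count per treatment (three replicate plates merged) is given as a fraction of DMSO control. Panel A used parental U2OS, panel B U2OS-mOrange2-Peroxisome, panel C1 U2OS-LMNB1-TUBA1B-ACTB (DRAQ5 nuclei).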

U2OS-LMNB1-TUBA1B-ACTB = assay: cell count relative to DMSO control (panel C1, DRAQ5/ER stain) (fraction of control); higher = more cells (less toxicity)
Method: as §1

U2OS-mOrange2-Peroxisome = assay: cell count relative to DMSO control (panel B, lysosome/peroxisome/lipid stain) (fraction of control); higher = more cells (less toxicity)
Method: as §1

SMILES | cell count (U2OS; 0.3125 µM) | cell count (U2OS; 0.625 µM) | cell count (U2OS; 1.25 µM) | cell count (U2OS; 2.5 µM) | cell count (U2OS; 5 µM) | cell count (U2OS; 10 µM) | cell count (U2OS; 20 µM) | cell count (U2OS-LMNB1-TUBA1B-ACTB; 0.3125 µM) | cell count (U2OS-LMNB1-TUBA1B-ACTB; 0.625 µM) | cell count (U2OS-LMNB1-TUBA1B-ACTB; 1.25 µM) | cell count (U2OS-LMNB1-TUBA1B-ACTB; 2.5 µM) | cell count (U2OS-LMNB1-TUBA1B-ACTB; 5 µM) | cell count (U2OS-LMNB1-TUBA1B-ACTB; 10 µM) | cell count (U2OS-LMNB1-TUBA1B-ACTB; 20 µM) | cell count (U2OS-mOrange2-Peroxisome; 0.3125 µM) | cell count (U2OS-mOrange2-Peroxisome; 0.625 µM) | cell count (U2OS-mOrange2-Peroxisome; 1.25 µM) | cell count (U2OS-mOrange2-Peroxisome; 2.5 µM) | cell count (U2OS-mOrange2-Peroxisome; 5 µM) | cell count (U2OS-mOrange2-Peroxisome; 10 µM) | cell count (U2OS-mOrange2-Peroxisome; 20 µM) | cell count (U2OS; 0.15625 µM) | cell count (U2OS-LMNB1-TUBA1B-ACTB; 0.15625 µM) | cell count (U2OS-mOrange2-Peroxisome; 0.15625 µM) | cell count (U2OS; 0.07812 µM) | cell count (U2OS-LMNB1-TUBA1B-ACTB; 0.07812 µM) | cell count (U2OS-mOrange2-Peroxisome; 0.07812 µM)
O=C(Oc1cc(S(=O)(=O)c2ccccc2)ccc1[N+](=O)[O-])c1ccc(Cl)cc1 | 1.05 | 1.08 | 1.11 | 1.06 | 0.997 | 0.944 | 0.966 | 1.05 | 1.06 | 0.969 | 0.953 | 0.983 | 1.13 | 0.989 | 0.726 | 0.838 | 0.873 | 1.02 | 1.08 | 1.26 | 0.846 | – | – | – | – | – | –
Cc1ccc(S(=O)(=O)c2ccc([N+](=O)[O-])o2)cc1 | 0.974 | 1.04 | 1.05 | 1.01 | 0.917 | 0.886 | – | 1.1 | 1.02 | 1.12 | 1.1 | 1.02 | 0.982 | – | 0.934 | 0.938 | 0.864 | 1.16 | 0.964 | 0.837 | – | 1.02 | 1.01 | 0.927 | – | – | –
Nc1c2ccccc2nc2ccccc12 [9-aminoacridine] | 1.08 | 1.12 | 1 | 0.751 | 0.383 | 0.226 | 0.254 | 1.11 | 1.05 | 1.12 | 0.826 | 0.239 | 0.0589 | 0.0515 | 1.12 | 0.733 | 0.6 | 0.346 | 0.104 | 0.0699 | 0.0813 | – | – | – | – | – | –
Cc1[nH]c2ccccc2c1CCNC(=O)c1cccs1 [CK-636] | 1.06 | 0.971 | 1.01 | 1.01 | 0.977 | 0.961 | 0.865 | 1.16 | 1.06 | 1.09 | 1.04 | 0.908 | 0.887 | 0.858 | 0.793 | 0.764 | 0.737 | 0.756 | 0.783 | 1.04 | 0.977 | – | – | – | – | – | –
O=C(O)CCCCC(CCSCc1ccccc1)SCc1ccccc1 (stereo not drawn) [CPI-613] | 1.01 | 0.993 | 0.975 | 1.04 | 1.14 | 1.11 | 1.05 | 1.36 | 1.4 | 1.03 | 1.06 | 1.15 | 1.08 | 1.14 | 0.907 | 1.1 | 0.897 | 1.1 | 0.851 | 0.902 | 0.849 | – | – | – | – | – | –
OC(CS)C(O)CS (stereo not drawn) [DTT] | 0.863 | 0.785 | 0.733 | 0.765 | 0.729 | 0.201 | 0.11 | 0.887 | 0.811 | 0.809 | 0.764 | 0.806 | 0.477 | 0.457 | 0.732 | 0.714 | 0.826 | 0.911 | 0.773 | 0.0574 | 0.0584 | – | – | – | – | – | –
N#CC(C#N)=NNc1ccc(OC(F)(F)F)cc1 [FCCP] | 0.961 | 0.945 | 0.883 | 0.867 | 0.897 | 0.622 | 0.704 | 1.11 | 1.13 | 1.01 | 1.05 | 0.894 | 0.666 | 0.651 | 0.804 | 0.769 | 0.715 | 0.625 | 0.802 | 0.659 | 0.618 | – | – | – | – | – | –
NCCCCC(N)C(=O)NC(CCCCN)C(=O)NC(Cc1c[nH]c2ccccc12)C(=O)NC(Cc1c[nH]c2ccccc12)C(=O)NC(CCCCN)C(=O)NC(CCCCN)C(=O)NC(Cc1c[nH]c2ccccc12)C(=O)NC(C(=O)NC(CCCCN)C(N)=O)C(c1ccccc1)c1ccccc1 (stereo not drawn) [LTX-315] | 1.04 | 0.967 | 1.09 | 0.948 | 0.657 | 0.15 | 0.0373 | 1.13 | 1.1 | 1.08 | 1.05 | 0.842 | 0.47 | 0.0329 | 0.785 | 0.756 | 0.817 | 0.766 | 0.885 | 0.508 | 0.0593 | – | – | – | – | – | –
CCCC[C@@H](C=O)NC(=O)[C@H](CC(C)C)NC(=O)[C@H](CC(C)C)NC(C)=O [MG-101] | 0.986 | 0.975 | 0.773 | 0.429 | 0.198 | 0.14 | 0.0899 | 1.15 | 1.07 | 1.08 | 0.727 | 0.443 | 0.173 | 0.0712 | 0.692 | 0.642 | 0.697 | 0.608 | 0.346 | 0.242 | 0.16 | – | – | – | – | – | –
CC(C)n1nc(-c2ccc3oc(N)nc3c2)c2c(N)ncnc21 [MLN0128] | 0.521 | 0.481 | 0.454 | 0.408 | 0.204 | – | – | 0.7 | 0.698 | 0.614 | 0.557 | 0.271 | – | – | 0.42 | 0.439 | 0.393 | 0.301 | 0.0428 | – | – | 0.584 | 0.748 | 0.426 | 0.646 | 0.774 | 0.578
CN1CCC(c2c(O)cc(O)c3c(=O)cc(-c4ccccc4Cl)oc23)[C@@H](O)C1 (stereo partly drawn) [alvocidib] | 0.804 | 0.575 | 0.44 | 0.221 | 0.142 | 0.14 | 0.153 | 0.864 | 0.789 | 0.569 | 0.314 | 0.253 | 0.239 | 0.257 | 1.61 | 1.52 | 1.18 | 1.24 | 1.29 | 0.687 | 0.372 | – | – | – | – | – | –
COc1cc(NS(C)(=O)=O)ccc1Nc1c2ccccc2nc2ccccc12 [amsacrine] | 1.04 | 0.838 | 0.405 | 0.402 | 0.322 | 0.359 | 0.329 | 0.954 | 0.858 | 0.513 | 0.448 | 0.441 | 0.402 | 0.373 | 0.619 | 0.639 | 0.486 | 0.428 | 0.312 | 0.203 | 0.142 | – | – | – | – | – | –
N#C[C@H](O[C@@H]1O[C@H](CO[C@@H]2O[C@H](CO)[C@@H](O)[C@H](O)[C@H]2O)[C@@H](O)[C@H](O)[C@H]1O)c1ccccc1 [amygdalin] | 1.09 | 1.06 | 1.07 | 1.02 | 0.921 | 1.05 | 0.974 | 1.05 | 1.15 | 0.992 | 1.01 | 0.959 | 1.1 | 0.956 | 0.877 | 0.848 | 0.731 | 0.983 | 0.805 | 0.948 | 0.953 | – | – | – | – | – | –
